These results are taken from patent publication US8679776B2, “Activatable dyes” (University of Massachusetts, priority 2007, dated 2014).

For one series, the system named is CHO-K1 cells. The experiment in a line: Photoactivation in live mammalian tissue culture cells. Type of series: cell-based. The protocol: Photoactivation of NVOC-MR121 in live CHO-K1 cells before (a) and after (b, c) brief exposure to DAPI-filtered light (˜100 ms). In (b) the field was limited to two cells, while in (c) the entire field was illuminated (40× objective). Cells were imaged with a Cy5 filter set.
Referring to FIGS. 16A (before) and 16B (after photoactivation), CHO-K1 cells were incubated with 1 μM of NVOC-Oxazine 16 for one hour, then imaged on a fluorescence microscope at 40× with a Cy5 filter set (Zeiss Axiovert 200M). […] All of these latent fluorophores are chemically stable in cells, and can be efficiently photoactivated 24 hours after initial incubation.

Series [1] can be described thus: Photoactivation of NVOC-Oxazine 16 in vitro (acetonitrile solution, long-wave UV). Type of series: physicochemical. The source says:
When novel, non-fluorescent caged dye (16) is irradiated with long-wave UV light (about 360 nm), the NVOC group is photolytically removed, and rapidly decarboxylates to form the oxazine 1 leuco dye (15). The non-fluorescent leuco dye rapidly reacts with oxygen in solution to generate the brightly fluorescent oxazine 1 dye (14). […] In such an evaluation, maximal emission was observed after less than four minutes using a hand-held longwave UV lamp. Irradiation in a fluorescence microscope, with either arc lamp or laser illumination, photoactivates this dye in less than 1 second due to the much higher photon flux through the microscope objective.
Referring to FIGS. 15A and 15B, NVOC-Oxazine 16 was dissolved in acetonitrile (2 mL) and placed in a fluorescence cuvette. The rate of photo-uncaging was monitored by continuous excitation at 365 nm and emission detection at 665 nm in a SPEX Fluoromax-3. Under these conditions, fluorescence activation reached a maximum in approximately two minutes.

Another series deals with T1, Transferrin (Homo sapiens, UniProt P02787).
T1 construct: purchased Sigma-Aldrich
As to the kind of experiment: Labeling of transferrin with caged dye, SDS-PAGE imaged before and after photoactivation. The settings on record: for near-IR fluorescence before photoactivation / near-IR fluorescence after photoactivation: 630 nm excitation, 670 nm long pass filter; for near-IR fluorescence after photoactivation: hand-held longwave UV lamp for 1 min. As to the method:
FIG. 20 is an SDS-PAGE gel of transferrin labeled with a caged oxazine dye, imaged before and after photoactivation. Transferrin in lanes 1-3 is labeled with NVOC-MR121 (25). Lanes 4-6 are labeled with tetramethyl-rhodamine (TMR).
Transferrin (Sigma-Aldrich®, 5 mg) was dissolved in 0.5 ml of 0.1M NaHCO3, pH 8.3. The caged oxazine dye 25 (0.2 mg) in 0.02 ml of DMSO and added to the transferrin solution and incubated at room temperature for one hour. The labeled protein was separated from the dye on a PD-10 column, and analyzed by SDS-PAGE (FIG. 20). The transferrin conjugate was initially non-fluorescent (FIG. 20a).

T1 sequence (P02787 20-698, species assumed): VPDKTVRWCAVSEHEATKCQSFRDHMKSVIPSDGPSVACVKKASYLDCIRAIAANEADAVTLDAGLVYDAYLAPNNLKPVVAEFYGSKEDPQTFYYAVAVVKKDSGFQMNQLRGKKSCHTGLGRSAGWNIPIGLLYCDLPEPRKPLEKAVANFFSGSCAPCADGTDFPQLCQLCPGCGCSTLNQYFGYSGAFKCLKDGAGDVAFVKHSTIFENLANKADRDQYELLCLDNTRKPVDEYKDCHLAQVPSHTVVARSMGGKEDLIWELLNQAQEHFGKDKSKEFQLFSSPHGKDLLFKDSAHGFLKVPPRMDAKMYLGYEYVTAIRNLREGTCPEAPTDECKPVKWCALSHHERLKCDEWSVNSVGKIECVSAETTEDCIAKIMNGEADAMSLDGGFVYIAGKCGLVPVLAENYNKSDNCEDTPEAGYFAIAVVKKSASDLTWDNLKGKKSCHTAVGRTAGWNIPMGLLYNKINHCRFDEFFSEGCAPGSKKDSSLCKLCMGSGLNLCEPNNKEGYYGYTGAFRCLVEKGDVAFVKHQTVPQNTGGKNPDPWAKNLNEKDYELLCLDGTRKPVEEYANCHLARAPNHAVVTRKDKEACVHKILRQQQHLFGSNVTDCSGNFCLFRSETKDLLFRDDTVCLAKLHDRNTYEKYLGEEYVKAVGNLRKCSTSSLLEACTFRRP

In the case of NVOC-Oxazine [Compound 16], the cell permeability entry in the series on CHO-K1 cells is listed as “cell-permeable”. The “cellular fluorescence after brief exposure to DAPI-filtered light” value in the series with CHO-K1 cells (1 μM, one hour incubation, 365 nm, <1 second, Cy5 filter set) is “dramatic increase in cellular fluorescence”. In series [1] (acetonitrile solution, hand-held longwave UV lamp, emission about 665 nm), the “time to maximal emission after exposure to long-wave UV light” value is “less than four”. Also, the “time for fluorescence activation to reach a maximum” value in series [1] (acetonitrile, continuous excitation at 365 nm, emission detection at 665 nm, SPEX Fluoromax-3) is “approximately two”. Further, the “time to photoactivate in a fluorescence microscope” value in series [1] (arc lamp or laser illumination through the microscope objective) was “less than 1 second”.
Regarding “TMR-Tf: transferrin labeled with tetramethyl-rhodamine (TMR) [reference compound]”, in the series with Transferrin (SDS-PAGE, 520 nm excitation and 575DF20 filter), the “fluorescence before photoactivation, TMR channel” value is given as “readily visible”.
On to “transferrin conjugate: transferrin labeled with caged oxazine dye NVOC-MR121 NHS ester 25”, for which the “near-IR fluorescence before photoactivation” value with Transferrin (SDS-PAGE) is on record as “non-fluorescent”; with Transferrin (SDS-PAGE, listed as labeled transferrin), “No near-IR fluorescence is visible”. The “near-IR fluorescence after photoactivation” value with Transferrin is on record as “bright near-IR fluorescence”; with Transferrin (listed as labeled transferrin), “brightly fluorescent in the near-IR”.
Regarding Bis-NH NVOC-Oxazine [Compound 41], in the series on CHO-K1 cells, the “staining pattern after photoactivation” value is “more diffuse staining”.
Take `CCN(CC)c1ccc2nc3ccc(=[N+](CC)CC)cc-3oc2c1.[O-][Cl+3]([O-])([O-])[O-]` [oxazine 1, reference compound]: the maximal emission result in series [1] (active dye generated by uncaging) is reported as “about 665 nm”.
